Reference: patent US10626144B2, “Peptide derivatives and uses thereof” (Nosopharm, priority 2014, dated 2020)
Numbered stars: 1 amine (or outer) side, 2 acyl side, 3 side chain; on linkers, the order of the positions; unused ones are H or OH. Square brackets hold non-standard residues; d marks the D form. Peptide text beside a SMILES is read from it. * marks the point of attachment. ξ: configuration not given here. Phe(2,4-Me2) = Cc1ccc(C[C@H](N)C(=O)O)c(C)c1; Phe(2-CONH2) = NC(=O)c1ccccc1C[C@H](N)C(=O)O; Pro(trans-4-F) = O=C(O)[C@@H]1C[C@@H](F)CN1; Dab(3S-OH) = NC[C@H](O)[C@H](N)C(=O)O; Met(O2) = CS(=O)(=O)CC[C@H](N)C(=O)O; Phe(2-Me) = Cc1ccccc1C[C@H](N)C(=O)O; 3Pal = N[C@@H](Cc1cccnc1)C(=O)O; ΔZArg = N=C(N)NCC/C=C(\N)C(=O)O; NMeK = CN[C@@H](CCCCN)C(=O)O; X2 = CC=C(N[*:1])C(=O)[*:2]; dOrn = NCCC[C@@H](N)C(=O)O; Pra = C#CC[C@H](N)C(=O)O; Dab = NCC[C@H](N)C(=O)O; NH(CH2)4NH2 = NCCCCN*; ξAze = O=C(O)C1CCN1

Assays:
Assay in all cases: MIC, broth microdilution (CLSI), reference strain
Conditions in all cases: CAMHB
[1] = system: Acinetobacter baumannii ATCC 19606
[2] = system: Pseudomonas aeruginosa ATCC 27853
[3] = system: Staphylococcus aureus ATCC 13709
[4] = system: Escherichia coli ATCC 25922

Compound | Ab: MIC Acinetobacter baumannii ATCC 19606 [1] | Pa: MIC Pseudomonas aeruginosa ATCC 27853 [2] | Sa: MIC Staphylococcus aureus ATCC 13709 [3] | Ec: MIC Escherichia coli ATCC 25922 [4]
CC[C@H](C)[C@H](NC(=O)/C(=C/CCNC(=N)N)NC(=O)[C@H](CCCCN)NC(=O)[C@H](Cc1cnc[nH]1)NC(=O)[C@@H]1CCCN1C(=O)[C@@H](CCCN)NC(=O)CNC(=O)[C@H](C)NC(=O)[C@@H](NC(=O)[C@@H](N)CCCCN)[C@@H](O)CN)C(=O)O [24.123] (H-K[Dab(3S-OH)]AG[dOrn]PHK[ΔZArg]I-OH) | − (>32 μg/mL) | − (>32 μg/mL) | + (≤32 μg/mL) | − (>32 μg/mL)
N=C(N)NCCC[C@H](NC(=O)[C@H](CCCCN)NC(=O)[C@H](Cc1cnc[nH]1)NC(=O)[C@@H]1CCCN1C(=O)[C@@H](CCCN)NC(=O)CNC(=O)[C@@H](NC(=O)[C@@H](NC(=O)[C@@H](N)CCCCN)[C@@H](O)CN)[C@@H](O)CN)C(=O)N[C@@H](CCCCN)C(=O)NCCCCN [22.17] (H-K[Dab(3S-OH)][Dab(3S-OH)]G[dOrn]PHKRK-{NH(CH2)4NH2}) | − (>32 μg/mL) | − (>32 μg/mL) | ++ (≤8 μg/mL) | + (≤32 μg/mL)
COC[C@H](NC(=O)[C@@H]1CCCN1C(=O)[C@@H](CCCN)NC(=O)CNC(=O)[C@H](C)NC(=O)[C@@H](NC(=O)[C@@H](N)CCCCN)[C@@H](O)CN)C(=O)N[C@@H](CCCCN)C(=O)N/C(=C\CCNC(=N)N)C(=O)O [24.136] (H-K[Dab(3S-OH)]AG[dOrn]PS(Me)K[ΔZArg]-OH) | − (>32 μg/mL) | − (>32 μg/mL) | − (>32 μg/mL) | − (>32 μg/mL)
C#CC[C@H](NC(=O)[C@@H](NC(=O)[C@@H](N)CCCCN)[C@@H](O)CN)C(=O)NCC(=O)N[C@H](CCCN)C(=O)N1CCC[C@H]1C(=O)N[C@@H](Cc1cnc[nH]1)C(=O)N[C@@H](CCCCN)C(=O)N/C(=C\CCNC(=N)N)C(=O)O [223.1] (H-K[Dab(3S-OH)][Pra]G[dOrn]PHK[ΔZArg]-OH) | − (>32 μg/mL) | − (>32 μg/mL) | + (≤32 μg/mL) | + (≤32 μg/mL)
C[C@H](NC(=O)[C@@H](NC(=O)[C@@H](N)CCCCN)[C@@H](O)CN)C(=O)NCC(=O)N[C@H](CCCN)C(=O)N1C[C@H](F)C[C@H]1C(=O)N[C@@H](Cc1cnc[nH]1)C(=O)N[C@@H](CCCCN)C(=O)N/C(=C\CCNC(=N)N)C(=O)N[C@@H](CCCCN)C(=O)NCCCCN [24.4] (H-K[Dab(3S-OH)]AG[dOrn][Pro(trans-4-F)]HK[ΔZArg]K-{NH(CH2)4NH2}) | + (≤32 μg/mL) | + (≤32 μg/mL) | ++ (≤8 μg/mL) | ++ (≤8 μg/mL)
C[C@H](NC(=O)[C@H](CCN)NC(=O)[C@@H](N)CCCCN)C(=O)NCC(=O)N[C@H](CCCN)C(=O)N1CCC1C(=O)N[C@@H](Cc1cnc[nH]1)C(=O)N[C@@H](CCCCN)C(=O)N/C(=C\CCNC(=N)N)C(=O)N[C@@H](CCCCN)C(=O)NCCCCN (stereo partly shown) [14.18] (H-K[Dab]AG[dOrn][ξAze]HK[ΔZArg]K-{NH(CH2)4NH2}) | − (>32 μg/mL) | − (>32 μg/mL) | ++ (≤8 μg/mL) | − (>32 μg/mL)
CC=C(NC(=O)[C@H](CCCCN)NC(=O)[C@H](Cc1cnc[nH]1)NC(=O)[C@@H]1CCCN1C(=O)[C@@H](CCCN)NC(=O)CNC(=O)[C@H](C)NC(=O)[C@@H](NC(=O)[C@@H](N)CCCCN)[C@@H](O)CN)C(=O)N[C@@H](CCCCN)C(=O)NCCCCN [24.8] (H-K[Dab(3S-OH)]AG[dOrn]PHK[X2]K-{NH(CH2)4NH2}) | − (>32 μg/mL) | − (>32 μg/mL) | ++ (≤8 μg/mL) | + (≤32 μg/mL)
CN[C@@H](CCCCN)C(=O)N[C@H](C(=O)N[C@@H](C)C(=O)NCC(=O)N[C@H](CCCN)C(=O)N1CCC[C@H]1C(=O)N[C@@H](Cc1cnc[nH]1)C(=O)N[C@@H](CCCCN)C(=O)N/C(=C\CCNC(=N)N)C(=O)N[C@@H](CCCCN)C(=O)NCCCCN)[C@@H](O)CN [24.61] (H-[NMeK][Dab(3S-OH)]AG[dOrn]PHK[ΔZArg]K-{NH(CH2)4NH2}) | + (≤32 μg/mL) | + (≤32 μg/mL) | ++ (≤8 μg/mL) | ++ (≤8 μg/mL)
C[C@H](NC(=O)[C@@H](NC(=O)[C@@H](N)CCCCN)[C@@H](O)CN)C(=O)NCC(=O)N[C@H](CCCN)C(=O)N1CCC[C@H]1C(=O)N[C@@H](Cc1ccccc1C(N)=O)C(=O)N[C@@H](CCCCN)C(=O)N/C(=C\CCNC(=N)N)C(=O)O [24.82] (H-K[Dab(3S-OH)]AG[dOrn]P[Phe(2-CONH2)]K[ΔZArg]-OH) | − (>32 μg/mL) | − (>32 μg/mL) | + (≤32 μg/mL) | − (>32 μg/mL)
Cc1ccccc1C[C@H](NC(=O)[C@@H]1CCCN1C(=O)[C@@H](CCCN)NC(=O)CNC(=O)[C@H](C)NC(=O)[C@@H](NC(=O)[C@@H](N)CCCCN)[C@@H](O)CN)C(=O)N[C@@H](CCCCN)C(=O)N/C(=C\CCNC(=N)N)C(=O)O [24.83] (H-K[Dab(3S-OH)]AG[dOrn]P[Phe(2-Me)]K[ΔZArg]-OH) | − (>32 μg/mL) | − (>32 μg/mL) | ++ (≤8 μg/mL) | + (≤32 μg/mL)
N=C(N)NCC/C=C(\NC(=O)[C@H](CCCCN)NC(=O)[C@H](Cc1c[nH]c2ccccc12)NC(=O)[C@@H]1CCCN1C(=O)[C@@H](CCCN)NC(=O)CNC(=O)[C@@H](NC(=O)[C@@H](NC(=O)[C@@H](N)CCCCN)[C@@H](O)CN)[C@@H](O)CN)C(=O)O [22.41] (H-K[Dab(3S-OH)][Dab(3S-OH)]G[dOrn]PWK[ΔZArg]-OH) | − (>32 μg/mL) | − (>32 μg/mL) | ++ (≤8 μg/mL) | ++ (≤8 μg/mL)
Cc1ccc(C[C@H](NC(=O)[C@@H]2CCCN2C(=O)[C@@H](CCCN)NC(=O)CNC(=O)[C@H](C)NC(=O)[C@@H](NC(=O)[C@@H](N)CCCCN)[C@@H](O)CN)C(=O)N[C@@H](CCCCN)C(=O)N/C(=C\CCNC(=N)N)C(=O)O)c(C)c1 [24.78] (H-K[Dab(3S-OH)]AG[dOrn]P[Phe(2,4-Me2)]K[ΔZArg]-OH) | − (>32 μg/mL) | − (>32 μg/mL) | ++ (≤8 μg/mL) | + (≤32 μg/mL)
C[C@H](NC(=O)[C@@H](NC(=O)[C@@H](N)CCCCN)[C@@H](O)CN)C(=O)NCC(=O)N[C@H](CCCN)C(=O)N1CCC[C@H]1C(=O)N[C@@H](CCS(C)(=O)=O)C(=O)N[C@@H](CCCCN)C(=O)N/C(=C\CCNC(=N)N)C(=O)O [24.133] (H-K[Dab(3S-OH)]AG[dOrn]P[Met(O2)]K[ΔZArg]-OH) | − (>32 μg/mL) | − (>32 μg/mL) | + (≤32 μg/mL) | − (>32 μg/mL)
C[C@H](NC(=O)[C@@H](NC(=O)[C@@H](N)CCCCN)[C@@H](O)CN)C(=O)NCC(=O)N[C@H](CCCN)C(=O)N1CCC[C@H]1C(=O)N[C@@H](Cc1cccnc1)C(=O)N[C@@H](CCCCN)C(=O)N/C(=C\CCNC(=N)N)C(=O)O [24.107] (H-K[Dab(3S-OH)]AG[dOrn]P[3Pal]K[ΔZArg]-OH) | − (>32 μg/mL) | − (>32 μg/mL) | + (≤32 μg/mL) | + (≤32 μg/mL)
CSCC[C@H](NC(=O)[C@@H]1CCCN1C(=O)[C@@H](CCCN)NC(=O)CNC(=O)[C@H](C)NC(=O)[C@@H](NC(=O)[C@@H](N)CCCCN)[C@@H](O)CN)C(=O)N[C@@H](CCCCN)C(=O)N/C(=C\CCNC(=N)N)C(=O)O [24.131] (H-K[Dab(3S-OH)]AG[dOrn]PMK[ΔZArg]-OH) | − (>32 μg/mL) | − (>32 μg/mL) | + (≤32 μg/mL) | + (≤32 μg/mL)
C[C@H](NC(=O)[C@H](CCN)NC(=O)[C@@H](N)CCCCN)C(=O)NCC(=O)N[C@H](CCCN)C(=O)N1CCC[C@H]1C(=O)N[C@@H](Cc1cnc[nH]1)C(=O)N[C@@H](CCCCN)C(=O)N/C(=C\CCNC(=N)N)C(=O)N[C@@H](CCCCN)C(N)=O [14.12] (H-K[Dab]AG[dOrn]PHK[ΔZArg]K-NH2) | − (>32 μg/mL) | − (>32 μg/mL) | ++ (≤8 μg/mL) | + (≤32 μg/mL)
